Experimental data published in patent US20160002247A1, “8-SUBSTITUTED IMIDAZOPYRIMIDINONE DERIVATIVE HAVING AUTOTAXIN INHIBITORY ACTIVITY” (THE UNIVERSITY OF TOKYO, priority 2013, published 2016).
pIC50: −log10 of the molar value. Where two headings read alike, the source gives them in different places.

Assays:
Mouse autotaxin enzyme = biological target: T1, Mouse autotaxin enzyme (Mus musculus, UniProt Q9R1E6); experiment: Evaluation of autotaxin inhibitor, Method A (Test Example 1): TG-mTMP fluorescence; type: biochemical; conditions: Assay Method: Method A (Test Example 1); read-out: Inhibitory Activity (Enzyme Inhibitory Activity, IC50)
T1 construct: purchased R&D System
Experimental: (Method A) Evaluation of Autotaxin Inhibitor
Solution A containing 25 mM Tris-HCl buffer (pH7.5), 100 mM NaCl, 5 mM MgCl2 and 0.1% BSA was prepared. Mouse autotaxin enzyme (purchased from R&D System) was diluted with Solution A, and 5 μL of which was added to a solution of test compound in DMSO. Furthermore, 5 μl of 0.5 μM TG-mTMP in Solution A was added and allowed to react at room temperature for 2 hours. 5 μl of 150 mM EDTA in Solution A was added to quench the reaction, and a fluorescent dye TokyoGreen, which was produced by the reaction, was detected. The fluorescence was detected using ViewLux (PerkinElmer, Inc.) with an excitation wavelength of 480 nm and a fluorescence wavelength of 540 nm.
The percent inhibition of the test compound was calculated by assuming the sample with no test compound as 0% inhibition and the sample with no enzyme as 100% inhibition, and the percent inhibitions at different concentrations of the test compound were plotted to obtain a concentration-dependent curve.

Human autotaxin enzyme = biological target: T2, Human autotaxin enzyme (Homo sapiens, UniProt Q13822); experiment: Evaluation of autotaxin inhibitor, Method B (Test Example 2): TG-mTMP fluorescence; type: biochemical
T2 construct: purchased R&D System
In short: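 Human autotaxin in Tris-HCl pH 7.5 buffer with NaCl, MgCl2 and 0.1% BSA was reacted with TG-mTMP (0.5 μM solution added) and test compound for 2 hours at room temperature.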

[1] = Assay Method B (Test Example 2), human autotaxin, read-out: Inhibitory Activity (autotaxin enzyme inhibitory activity, IC50 class)
[2] = Assay Method: Method B (Test Example 2), read-out: Inhibitory Activity (Enzyme Inhibitory Activity, IC50)

Row | Structure (SMILES) | pIC50 (Human autotaxin enzyme; [1]) | also measured
1 | Cc1cc(=O)n2cc(-c3ccc(Cl)cc3)nc2n1CC(=O)OC(C)(C)C [Compound 23] |  | pIC50 (Mouse autotaxin enzyme): 7.00 to 8.00
2 | CCOC(=O)Cn1c(C)cc(=O)n2cc(-c3ccc([N+](=O)[O-])cc3)nc12 [Compound 36] |  | pIC50 (Mouse autotaxin enzyme): 7.00 to 8.00
3 | CCCCCCCCCn1c(C)cc(=O)n2cc(-c3ccc(Cl)cc3)nc12 [Compound 11] |  | pIC50 (Mouse autotaxin enzyme): 6.00 to 7.00
4 | CCCCCCCCn1c(C)cc(=O)n2cc(-c3ccc(Cl)cc3)nc12 [Compound 10] |  | pIC50 (Mouse autotaxin enzyme): 7.00 to 8.00
5 | CCOC(=O)Cn1c(C)cc(=O)n2cc(-c3ccc(OC)cc3)nc12 [Compound 32] |  | pIC50 (Mouse autotaxin enzyme): 7.00 to 8.00
6 | CCCCCn1c(C)cc(=O)n2cc(-c3ccc(C)cc3)nc12 [Compound 19] |  | pIC50 (Mouse autotaxin enzyme): 7.00 to 8.00
7 | Cc1cc(=O)n2cc(-c3ccc(Cl)cc3)nc2n1C [Compound 4] |  | pIC50 (Mouse autotaxin enzyme): 6.00 to 7.00
8 | CCOC(=O)Cn1c(C)cc(=O)n2cc(-c3ccc(Cl)c(Cl)c3)nc12 [Compound 34] |  | pIC50 (Mouse autotaxin enzyme): 7.00 to 8.00
9 | CCOC(=O)Cn1c(C)cc(=O)n2cc(-c3cccc([N+](=O)[O-])c3)nc12 [Compound 37] |  | pIC50 (Mouse autotaxin enzyme): 6.00 to 7.00
10 | Cc1cc(=O)n2cc(-c3ccc(Cl)cc3)nc2n1C1CCCCC1 [Compound 14] |  | pIC50 (Mouse autotaxin enzyme): 7.00 to 8.00
11 | COC(=O)Cn1c(C)cc(=O)n2cc(-c3ccc(Cl)cc3)nc12 [Compound 21] |  | pIC50 (Mouse autotaxin enzyme): 7.00 to 8.00
12 | CCCCCCCCCCn1c(C)cc(=O)n2cc(-c3ccc(Cl)cc3)nc12 [Compound 12] |  | pIC50 (Mouse autotaxin enzyme): 6.00 to 7.00
13 | CCn1c(C)cc(=O)n2cc(-c3ccc(Cl)cc3)nc12 [Compound 5] |  | pIC50 (Mouse autotaxin enzyme): 7.00 to 8.00
14 | CCOC(=O)Cn1c(C)cc(=O)n2cc(-c3cccc(N)c3)nc12 [Compound 39] |  | pIC50 (Mouse autotaxin enzyme): < 6.00
15 | Cc1cc(=O)n2cc(-c3ccc(Cl)cc3)nc2n1CC(=O)OCc1ccccc1 [Compound 22] |  | pIC50 (Mouse autotaxin enzyme): 7.00 to 8.00
16 | CCOC(=O)Cn1c(C)cc(=O)n2cc(-c3ccc(N)cc3)nc12 [Compound 38] |  | pIC50 (Mouse autotaxin enzyme): < 6.00
17 | CCOC(=O)Cn1c(C)cc(=O)n2cc(-c3ccc(I)cc3)nc12 [Compound 40] |  | pIC50 (Mouse autotaxin enzyme): 7.00 to 8.00
18 | C=CCn1c(C)cc(=O)n2cc(-c3ccc(Cl)cc3)nc12 [Compound 15] |  | pIC50 (Mouse autotaxin enzyme): 7.00 to 8.00
19 | CCNC(=O)Cn1c(C)cc(=O)n2cc(-c3ccc(Cl)cc3)nc12 [Compound 24] |  | pIC50 (Mouse autotaxin enzyme): 6.00 to 7.00
20 | CCCCCn1c(N2CCC(N3CCOCC3)CC2)cc(=O)n2cc(-c3ccc(Cl)cc3)nc12 [Compound 244] | 7.00 to 8.00 | 
21 | CCCCCn1c(C)c(CCOCC)c(=O)n2cc(-c3ccc(Cl)cc3)nc12 [Compound 214] | > 8.00 | 
22 | CCCCCn1c(N2CCCC2CCCc2ccccc2)cc(=O)n2cc(-c3ccc(Cl)cc3)nc12 (stereo not drawn) [Compound 278] | 7.00 to 8.00 | 

Row | Structure (SMILES) | pIC50 (Human autotaxin enzyme; [1]) | also measured
23 | CCCCCn1c(NCC(=O)O)cc(=O)n2cc(-c3ccc(Cl)cc3)nc12 [Compound 218] | 7.00 to 8.00 | 
24 | O=C(O)C1CCN(c2cc(=O)n3cc(-c4ccc(Cl)cc4)nc3n2CCCC(F)(F)F)CC1 [Compound 283] | > 8.00 | 
25 | CCCCCn1c(C)c(NC(C)=O)c(=O)n2cc(-c3cccc(Cl)c3)nc12 [Compound 209] | 6.00 to 7.00 | 
26 | CCCCCn1c(N2CCCCC2)cc(=O)n2cc(-c3ccc(Cl)cc3)nc12 [Compound 246] | 7.00 to 8.00 | 
27 | Cc1cc(=O)n2cc(-c3ccc(Cl)cc3)nc2n1CCC(C)C [Compound 79] |  | pIC50 (Human autotaxin enzyme; [2]): 7.00 to 8.00
28 | COCCCCn1c(C)cc(=O)n2cc(-c3ccc(Cl)cc3)nc12 [Compound 124] | 7.00 to 8.00 | 
29 | Cc1cc(=O)n2cc(-c3ccc(Cl)cc3)nc2n1CC1CC1 [Compound 66] |  | pIC50 (Human autotaxin enzyme; [2]): 7.00 to 8.00
30 | CCCCCn1c(NCc2ccc(C(=O)OC)cc2)cc(=O)n2cc(-c3ccc(Cl)cc3)nc12 [Compound 177, methyl 4-((2-(4-chlorophenyl)-5-oxo-8-pentyl-5,8-dihydroimidazo[1,2-a]pyrimidin-7-ylamino)methyl)benzoate] | 7.00 to 8.00 | 
31 | CCCCCn1c(C)cc(=O)n2cc(-c3ccc(N(CC)CC)cc3)nc12 [Compound 159] | < 6.00 | 
32 | CC(=O)CCCn1c(C)cc(=O)n2cc(-c3ccc(Cl)cc3)nc12 [Compound 61] |  | pIC50 (Human autotaxin enzyme; [2]): 6.00 to 7.00
33 | CCCCCn1c(C)cc(=O)n2cc(-c3ccccc3)nc12 [Compound 138] | 6.00 to 7.00 | 
34 | CCCCCn1c(C)cc(=O)n2cc(-c3ccc(OC(F)F)cc3)nc12 [Compound 155] | 7.00 to 8.00 | 
35 | CCCCCn1c(N2CCCCCC2)cc(=O)n2cc(-c3ccc(Cl)cc3)nc12 [Compound 247] | 7.00 to 8.00 | 
36 | Cc1cncc(Oc2ccc(Cn3c(C)cc(=O)n4cc(-c5ccc(Cl)cc5)nc34)cc2)n1 [Compound 92] | 7.00 to 8.00 | 
37 | CCCCCn1c(NCc2ccc(C(=O)OC)cc2)c(C)c(=O)n2cc(-c3ccc(Cl)cc3)nc12 [Compound 178, methyl 4-((2-(4-chlorophenyl)-6-methyl-5-oxo-8-pentyl-5,8-dihydroimidazo[1,2-a]pyrimidin-7-ylamino)methyl)benzoate] | > 8.00 | 
38 | CCCCCn1c(-c2ccc(N(C)CC3CCCCO3)cc2)cc(=O)n2cc(-c3ccc(Cl)cc3)nc12 (stereo not drawn) [Compound 420] | 7.00 to 8.00 | 
39 | Cc1cc(=O)n2cc(-c3ccc(Cl)cc3)nc2n1C(C)c1ccccc1 (stereo not drawn) [Compound 54] |  | pIC50 (Human autotaxin enzyme; [2]): 7.00 to 8.00
40 | CCCCCn1c(CCC)cc(=O)n2cc(-c3ccc(Cl)cc3)nc12 [Compound 369] | > 8.00 | 
41 | CCOC(=O)C(C)n1c(C)cc(=O)n2cc(-c3ccc(Cl)cc3)nc12 (stereo not drawn) [Compound 80] |  | pIC50 (Human autotaxin enzyme; [2]): 7.00 to 8.00
42 | Cc1cc(=O)n2cc(-c3ccc(Cl)cc3)nc2n1CCCC#N [Compound 106] | 7.00 to 8.00 | 
43 | CCCCCn1c(C)cc(=O)n2cc(-c3ccc(C(=O)OCC)cc3)nc12 [Compound 151] | < 6.00 | 
44 | CCCCCn1c(NCc2ccc(OC)cc2)cc(=O)n2cc(-c3ccc(Cl)cc3)nc12 [Compound 226] | 7.00 to 8.00 | 

Row | Structure (SMILES) | pIC50 (Human autotaxin enzyme; [1]) | also measured
45 | CCCCCn1c(N2CCC(C(=O)O)CC2)cc(=O)n2cc(-c3ccc(Cl)cc3)nc12 [Compound 225] | > 8.00 | 
46 | CCCCCn1c(C)c(CCC(=O)O)c(=O)n2cc(-c3ccc(Cl)cc3)nc12 [Compound 180] | > 8.00 | 
47 | C=CCCCn1c(C)cc(=O)n2cc(-c3ccc(Cl)cc3)nc12 [Compound 43] |  | pIC50 (Human autotaxin enzyme; [2]): 7.00 to 8.00
48 | Cc1cc(=O)n2cc(-c3ccc(Cl)cc3)nc2n1Cc1ccc(S(C)(=O)=O)cc1 [Compound 105] | 7.00 to 8.00 | 
49 | CCCCCn1c(C)cc(=O)n2cc(-c3ccc(Cl)cc3)nc12 [Compound 3, 2-(4-chlorophenyl)-7-methyl-8-pentyl-imidazo[1,2-a]pyrimidin-5(8H)-one] |  | pIC50 (Human autotaxin enzyme; Inhibitory Activity (Enzyme Inhibitory Activity, IC50), Assay Method: Method B (Test Example 2)): > 8.00
50 | Cc1cc(=O)n2cc(-c3ccc(Cl)cc3)nc2n1CCCC(C)C [Compound 81] |  | pIC50 (Human autotaxin enzyme; [2]): > 8.00
51 | CCCCCn1c(-n2ccccc2=O)cc(=O)n2cc(-c3ccc(Cl)cc3)nc12 [Compound 426] | > 8.00 | 
52 | CCCCCn1c(C)cc(=O)n2cc(-c3cc4ccccc4s3)nc12 [Compound 142] | 7.00 to 8.00 | 
53 | Cc1cccc(Cn2c(C)cc(=O)n3cc(-c4ccc(Cl)cc4)nc23)c1 [Compound 60] |  | pIC50 (Human autotaxin enzyme; [2]): 6.00 to 7.00
54 | CCCCCn1c(C)c(F)c(=O)n2cc(-c3cccc(Cl)c3)nc12 [Compound 212] | < 6.00 | 
55 | CCCCCn1c(NCc2nccs2)cc(=O)n2cc(-c3ccc(Cl)cc3)nc12 [Compound 233] | 7.00 to 8.00 | 
56 | Cc1cc(=O)n2cc(-c3ccc(Cl)cc3)nc2n1C(C)c1cccc(C(F)(F)F)c1 (stereo not drawn) [Compound 108] | 7.00 to 8.00 | 
57 | CCCCCn1c(C)cc(=O)n2cc(-c3ccc(F)cc3F)nc12 [Compound 162] | 6.00 to 7.00 | 
58 | CCCCCn1c(NCCNC(C)=O)cc(=O)n2cc(-c3ccc(Cl)cc3)nc12 [Compound 236] | 7.00 to 8.00 | 
59 | CCCCCn1c(C)cc(=O)n2cc(-c3cc4ccccc4o3)nc12 [Compound 143] | 6.00 to 7.00 | 
60 | Cc1cc(=O)n2cc(-c3ccc(Cl)cc3)nc2n1Cc1ccc(S(=O)(=O)C(F)F)cc1 [Compound 113] | 7.00 to 8.00 | 
61 | Cc1cc(=O)n2cc(-c3ccc(Cl)cc3)nc2n1CC(=O)OC(C)(C)C [Compound 73] |  | pIC50 (Human autotaxin enzyme; [2]): 7.00 to 8.00
62 | CCCCCn1c(NCCO)cc(=O)n2cc(-c3ccc(Cl)cc3)nc12 [Compound 222] | 7.00 to 8.00 | 
63 | Cc1cc(=O)n2cc(-c3ccc(Cl)cc3)nc2n1Cc1ccc(Oc2ccccc2)cc1 [Compound 93] | < 6.00 | 
64 | CCCCCn1c(NCc2ccc3c(c2)OCO3)cc(=O)n2cc(-c3ccc(Cl)cc3)nc12 [Compound 249] | 7.00 to 8.00 | 
65 | Cc1cc(=O)n2cc(-c3ccc(Cl)cc3)nc2n1CCCCF [Compound 94] | 7.00 to 8.00 | 
66 | CCCCCn1c(C)cc(=O)n2c(C)c(-c3ccc(Cl)cc3)nc12 [Compound 170] | 7.00 to 8.00 | 
